Values quoted from earlier work, collected in patent US20250032538A1, “METHOD AND COMPOSITION FOR RESTORING HOMEOSTASIS, TREATING, AND PREVENTING DEGENERATIVE DISEASES, ACHIEVING ANTI-AGING EFFECT” (Vector Vitale IP LLC, priority 2023, published 2025).
Where two headings read alike, the source gives them in different places.

What was measured:
rats [1] = settings: rat, in vivo
rats [2] = test system: rats

Row | Molecule | carcinogenicity: lung tumors (rats [1]) | half lethal dose (LD50) (rats [2]; intraperitoneal) [mg/kg] | half lethal dose (LD50) (rats [2]; oral administration) [mg/kg]
1 | Titanium dioxide | increased lung tumors |  | 
2 | [Cl-].[Cl-].[Cl-].[Sc+3] [scandium (III) chloride] |  | 4 | 755
